# pIC50: −log10 of the molar value.
# How the values were obtained:
# [1] = target: IDH1 R132H (Homo sapiens, UniProt O75874, R132H); experiment: IDH1 R132H enzymatic assay (NADPH depletion coupled to diaphorase/resazurin); assay type: biochemical
# [2] = target: IDH1 R132C (Homo sapiens, UniProt O75874, R132C); experiment: IDH1 R132C enzymatic assay (NADPH depletion coupled to diaphorase/resazurin); assay type: biochemical
# Summary of the method: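 NADPH depletion, read via diaphorase/resazurin coupling, after adding substrate at 0.6 mM α-KG and 0.012 mM NADPH. Beforehand, 0.00032 mg/mL enzyme sat with compound 30 min at room temperature in pH 6.5 potassium phosphate buffer with MgCl2, glycerol and BSA.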
# [3] = IDH1 R132H enzymatic inhibition, IC50 class
# [4] = IDH1 R132C enzymatic inhibition, IC50 class
# [5] = enzymatic inhibition, IDH1 R132H
# [6] = enzymatic inhibition, IDH1 R132C
# Chain of IDH1 R132H (O75874 whole entry R132H): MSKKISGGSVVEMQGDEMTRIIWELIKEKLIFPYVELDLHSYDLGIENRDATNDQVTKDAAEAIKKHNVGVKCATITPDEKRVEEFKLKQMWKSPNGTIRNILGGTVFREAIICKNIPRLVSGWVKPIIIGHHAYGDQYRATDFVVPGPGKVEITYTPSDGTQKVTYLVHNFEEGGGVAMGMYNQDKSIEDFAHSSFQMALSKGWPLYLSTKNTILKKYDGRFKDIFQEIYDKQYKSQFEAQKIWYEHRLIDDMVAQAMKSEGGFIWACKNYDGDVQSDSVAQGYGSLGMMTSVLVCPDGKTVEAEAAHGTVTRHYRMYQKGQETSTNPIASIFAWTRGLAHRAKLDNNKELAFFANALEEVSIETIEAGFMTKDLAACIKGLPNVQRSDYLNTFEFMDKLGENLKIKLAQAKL
# Chain of IDH1 R132C (O75874 whole entry R132C): as the sequence (O75874 whole entry R132H) above, with H132C counted along it
SMILES,"pIC50 [1, 3]","pIC50 [2, 4]","pIC50 [1, 5]","pIC50 [2, 6]"
COc1ncc(C)cc1-n1c(C=C(C)C)c(C(=O)N2CCNCC2)cc(-c2nc(-c3ccc(Cl)cc3)cs2)c1=O [Compound 667],> 6.52,> 6.52,,
CCSc1ccccc1-n1c2c(cc(-c3nc(-c4ccc(Cl)cc4)cs3)c1=O)C(=O)CC(C)(C)C2 [Compound 134],5.30 to 6.00,6.00 to 6.52,,
CCc1cccc(C)c1-n1c2c(cc(-c3nc(-c4ccc(Cl)cc4)cs3)c1=O)C(=O)CCC2 [Compound 628],5.30 to 6.00,5.30 to 6.00,,
CCc1cccc(CC)c1-n1c2c(cc(-c3nc(-c4ccc(Cl)cc4)cs3)c1=O)C(=O)N1CCCCC21 (stereo not drawn) [Compound 610],,,6.00 to 6.52,6.00 to 6.52
Cc1ccc(CO)cc1-n1c2c(cc(-c3nc(-c4ccc(Cl)cc4)cs3)c1=O)C(=O)CCC2 [Compound 651],5.30 to 6.00,5.30 to 6.00,,
COc1ccc(OC)c(-n2c3c(cc(-c4cn(-c5ccc(Cl)cc5)cn4)c2=O)C(=O)CC(C)(C)C3)c1 [Compound 65],< 4.70,4.70 to 5.30,,
COc1ccc(OC)c(-n2c(=O)c(-c3nc(-c4ccc(Cl)cc4)cs3)cc3c(O)cccc32)c1 [Compound 68],< 4.70,< 4.70,,
COc1ccc(OC)c(-n2c3c(cc(-c4nc(-c5ccc(Cl)cc5)cs4)c2=O)C=CC(C)(C)C3)c1 [Compound 144],5.30 to 6.00,5.30 to 6.00,,
CCc1cccc(CC)c1-n1c(CC(C)C)c(C(=O)N2CCN[C@H](C(=O)OC)C2)cc(-c2nc(-c3ccc(Cl)cc3)cs2)c1=O [Compound 2],5.30 to 6.00,6.00 to 6.52,,
"O=c1[nH]cccc1-c1nc(-c2ccc(Cl)cc2)cs1 [Compound 79, 3-(4-(4-chlorophenyl)thiazol-2-yl)pyridin-2(1H)-one]",< 4.70,< 4.70,,
CCOc1ncc(Cl)cc1-n1c(C=C(C)C)c(C(=O)N2CCNCC2)cc(-c2nc(-c3ccc(C(F)F)nc3)cs2)c1=O [Compound 580],,,> 6.52,6.00 to 6.52
CC1(C)CC(=O)c2cc(-c3nc(-c4ccc(Cl)cc4)cs3)c(=O)n(-c3ccccc3-c3ccccc3)c2C1 [Compound 295],5.30 to 6.00,6.00 to 6.52,,
COc1ccc(OC)c(-n2c3c(cc(-c4nc(-c5ccc(Cl)cc5)cs4)c2=O)C(=O)CC3)c1 [Compound 24],< 4.70,4.70 to 5.30,,
CCc1ccc(Cl)c(CC)c1-n1c(C=C(C)C)c(C(=O)N2CCNCC2)cc(-c2nc(-c3ccc(Cl)cc3)cs2)c1=O [Compound 666],> 6.52,> 6.52,,
CCc1cccc(CC)c1-n1c(C)c(C(=O)NC2CCCNC2)cc(-c2nc(-c3ccc(Cl)cc3)cs2)c1=O (stereo not drawn) [Compound 114],5.30 to 6.00,6.00 to 6.52,,
CCc1cccc(Cl)c1-n1c(C=C(C)C)c(C(=O)N2CCNCC2)cc(-c2nc(-c3ccc(Cl)cc3)cs2)c1=O [Compound 448],,,> 6.52,> 6.52
CCc1cccc(CC)c1-n1c(CC(C)C)c(C(=O)N2CCNC(C)C2)cc(-c2nc(-c3ccc(Cl)cc3)cs2)c1=O (stereo not drawn) [Compound 305],6.00 to 6.52,> 6.52,,
CCc1cccc(CC)c1-n1c(C=C(C)C)c(C(=O)N2CCNCC2)cc(-c2nn(-c3ccc(Cl)cc3)cc2Br)c1=O [Compound 363],5.30 to 6.00,4.70 to 5.30,,
CCc1cccc(CC)c1-n1c(C=C(C)C)c(C(=O)N2CCNCC2CC(C)C)cc(-c2nc(-c3ccc(Cl)cc3)cs2)c1=O (stereo not drawn) [Compound 621],6.00 to 6.52,> 6.52,,
O=C1CCCc2c1cc(-c1nc(-c3ccc(Cl)cc3)cs1)c(=O)n2-c1ccccc1C(F)(F)F [Compound 451],,,6.00 to 6.52,5.30 to 6.00
CCCCc1ccc(-c2nc(-c3cc(C(=O)N4CCNCC4)c(CC(C)C)n(-c4c(CC)cccc4CC)c3=O)sc2C)cc1 [Compound 44],5.30 to 6.00,5.30 to 6.00,,
COc1cc(N)ccc1-n1c2c(cc(-c3nc(-c4ccc(Cl)cc4)cs3)c1=O)C(=O)CC(C)(C)C2 [Compound 95],5.30 to 6.00,5.30 to 6.00,,
CC1(C)CC(=O)c2cc(-c3nc(-c4ccc(Cl)cc4)cs3)c(=O)n(-c3sccc3C#N)c2C1 [Compound 402],,,6.00 to 6.52,> 6.52
Cc1ccc(-n2c3c(cc(-c4nc(-c5ccc(Cl)cc5)cs4)c2=O)C(=O)CCC3)c(C)c1 [Compound 450],,,< 4.70,< 4.70
CCc1cccc(CC)c1-n1c(C=C(C)C)c(C(=O)N2CCC3(CCNC3)C2)cc(-c2nc(-c3ccc(Cl)cc3)cs2)c1=O (stereo not drawn) [Compound 659],6.00 to 6.52,> 6.52,,
CCc1cccc(CC)c1-n1c(C=C(C)C)c(C(=O)N2CCNC3(CC3)C2)cc(-c2nc(-c3ccc(Cl)cc3)cs2)c1=O [Compound 431],,,> 6.52,> 6.52

# Next, values leading:
"pIC50 [1, 3]","pIC50 [2, 4]","pIC50 [1, 5]","pIC50 [2, 6]",SMILES
6.00 to 6.52,> 6.52,,,CCc1cccc(CC)c1-n1c(C(C)C)c(C(=O)N2CCN[C@H](C(=O)O)C2)cc(-c2nc(-c3ccc(Cl)cc3)cs2)c1=O [Compound 264]
,,5.30 to 6.00,5.30 to 6.00,Cc1cccc(CO)c1-n1c2c(cc(-c3nc(-c4ccc(Cl)cc4)cs3)c1=O)C(=O)CCC2 [Compound 428]
5.30 to 6.00,5.30 to 6.00,,,CCc1cccc(CC)c1-n1c2c(cc(-c3nc(-c4ccc(C)nc4)c(C)s3)c1=O)C(=O)CC(C)(C)C2 [Compound 299]
4.70 to 5.30,4.70 to 5.30,,,CC1(C)CC(=O)c2cc(-c3nc(-c4ccc(Cl)cc4)cs3)c(=O)n(-c3ccccc3CN)c2C1 [Compound 5]
> 6.52,6.00 to 6.52,,,CCc1cccc(CC)c1-n1c(COCCOC)c(C(=O)N2CCNCC2)cc(-c2nc(-c3ccc(Cl)cc3)cs2)c1=O [Compound 393]
5.30 to 6.00,5.30 to 6.00,,,CCc1cccc(CC)c1-n1c(CO)c(C(=O)NC)cc(-c2nc(-c3ccc(Cl)cc3)cs2)c1=O [Compound 100]
,,> 6.52,> 6.52,CCc1ccc(F)cc1-n1c(C=C(C)C)c(C(=O)N2CCNCC2)cc(-c2nc(-c3ccc(C(F)(F)F)cc3)cs2)c1=O [Compound 583]
< 4.70,< 4.70,,,CCc1cccc(CC)c1-n1c(C)c(C(=O)N2CCNCC2)c(O)c(C(=O)Nc2nc(-c3ccc(Cl)cc3)cs2)c1=O [Compound 400]
> 6.52,6.00 to 6.52,,,CCOc1ncccc1-n1c(C=C(C)C)c(C(=O)N2CCNCC2)cc(-c2nc(-c3ccc(Cl)cc3)cs2)c1=O [Compound 331]
> 6.52,6.00 to 6.52,,,CCc1cccc(CC)c1-n1c(CC(C)C)c(C(=O)NCCO)cc(-c2nc(-c3ccc(Cl)cc3)cs2)c1=O [Compound 4]
6.00 to 6.52,> 6.52,,,CCc1cccc(CC)c1-n1c(CC(C)C)c(C(=O)N[C@H](CO)c2ccccc2)cc(-c2nc(-c3ccc(Cl)cc3)cs2)c1=O [Compound 10]
6.00 to 6.52,6.00 to 6.52,,,CCc1cccc(CC)c1-n1c(CC(C)C)c(C(=O)N2CCNCC2)cc(-c2nc(-c3ccc(OC)cc3)c(C)s2)c1=O [Compound 224]
5.30 to 6.00,5.30 to 6.00,,,Cc1cccc(C)c1-n1c2c(cc(-c3nc(-c4ccc(Cl)cc4)cs3)c1=O)C(=O)CC(C)(C)C2 [Compound 215]
6.00 to 6.52,6.00 to 6.52,,,CCc1cccc(CC)c1-n1c(C)c(C(=O)N2CCN[C@H](C(=O)O)C2)cc(-c2nc(-c3ccc(Cl)cc3)cs2)c1=O [Compound 60]
5.30 to 6.00,6.00 to 6.52,,,CSc1ccccc1-n1c2c(cc(-c3nc(-c4ccc(Cl)cc4)cs3)c1=O)C(=O)CC(C)(C)C2 [Compound 164]
5.30 to 6.00,6.00 to 6.52,,,CCc1cccc(C)c1-n1c2c(cc(-c3nc(-c4ccc(Cl)cc4)cs3)c1=O)C(=O)CC(C)(C)C2 [Compound 279]
5.30 to 6.00,5.30 to 6.00,,,CCc1cccc(CC)c1-n1c(C)c(C(=O)N2CC(O)C2)cc(-c2nc(-c3ccc(Cl)cc3)cs2)c1=O [Compound 242]
5.30 to 6.00,5.30 to 6.00,,,CCc1cccc(CC)c1-n1c(C)c(C(=O)NC2CCCCC2O)cc(-c2nc(-c3ccc(Cl)cc3)cs2)c1=O (stereo not drawn) [Compound 270]
6.00 to 6.52,> 6.52,,,CCc1cccc(CC)c1-n1c(C=C(C)C)c(C(=O)N2CCC3(CCNC3)C2)cc(-c2nc(-c3ccc(Cl)cc3)cs2)c1=O (stereo not drawn) [Compound 320]
< 4.70,5.30 to 6.00,,,CCc1cccc(CC)c1-n1c(C)c(C(=O)NCC(C)C)cc(-c2nc(-c3ccc(Cl)cc3)cs2)c1=O [Compound 313]
,,5.30 to 6.00,5.30 to 6.00,CCc1cccc(CC)c1-n1c2c(cc(-c3nc(-c4ccc(Cl)cc4)cs3)c1=O)C(=O)CCC2 [Compound 525]
> 6.52,> 6.52,,,CCOc1ccc(F)cc1-n1c(C=C(C)C)c(C(=O)N2CCNCC2)cc(-c2nc(-c3ccc(C(F)(F)F)cc3)cs2)c1=O [Compound 329]

# From patent US10703746B2, “Mutant IDH1 inhibitors useful for treating cancer” (THE UNITED STATES OF AMERICA, AS REPRESENTED BY THE …, priority 2014, dated 2020)
